According to patent US20110251135A1, “INHIBITORS OF PERITONEAL SEEDING OF CANCER CELLS” (University of Utah Research Foundation, priority 2008, published 2011):

Tests used:
[1] = test system: DLD-1, HCT-116, HT-29 colon cancer cell lines; assay: Cell proliferation assay (crystal violet, 96-well); format: cell-based, human
Experimental: (§1) The data points represent the means of triplicate experiments and the error bars the standard errors of the means. […] The percent of apoptotic cells was then determined by the annexin V assay. […] The results shown are typical of two separate experiments. […] Immunoblots were performed for c-IAP-2, TRAF-1, TRAF-2, and FLIP. All lanes contain equal total protein.
For the cell proliferation assay, cells were dispersed and plated at 40,000 cells/well in 96-well dishes. At various days in culture, the cells were gently washed twice with 100 μL/well of ice-cold blocking buffer (1% radioimmunoassay grade BSA in PBS) and twice with 100 μL/well of ice-cold PBS. The cells were fixed for 10 min in 100% ice-cold methanol (100 μL/well), then allowed to air-dry. The cells were stained with 100 μL/well of 0.1% crystal violet in H20 for 10 minutes, then washed gently four times with dd H20 and four times with PBS. The plates were then air-dried completely. The stained cells were then solubilized in 1% sodium deoxycholate, and the plates read at 590 nm in a spectrophotometer. The absorption at 590 nm is proportional to the number of attached cells.

[2] = test system: NF-κB; assay: NF-κB electrophoretic mobility shift assay (EMSA), nuclear lysates of treated HT-29 cells; format: cell-based, human; conditions: 10 μM, 3 and 6 hour incubations
[3] = test system: DLD-1 cells; assay: Soft agar colony formation assay; format: cell-based, human; conditions: 10 μM for 6 days
Experimental: (§2) DLD-1, HCT-116, and HT-29 cells were cultured for 6 days in soft agar in the presence of DMSO (control), 10 μM BAY 11-7082, or 10 μM BAY 11-7085. The data points represent the means of colony counts per field (20×) performed in 5 different regions of the culture dishes. The data shown represent a typical result of two separate experiments. FIG. 2B and FIG. 2C are graphs that show athymic mice received subcutaneous injections of HT-29 (FIG. B) or HCT-116 (FIG. C) cells, followed by […] of BAY 11-7085 (dark bars) or DMSO (white bars) intraperitoneally twice weekly. The bars represent the 25-75% ranges of the tumor volumes and the horizontal lines in the bars are the medians. Using the Kruskal-Wallace statistical test to compare the median tumor volumes between BAY 11-7085 and DMSO yielded a p-value of 0.005 for HT-29 cells but >0.05 for HCT-116 cells.
(§3) Anchorage-independent cell growth is a hallmark of cancer cells and is a good correlation to tumorigencity in vivo. Therefore, the effects of BAY 11-7082 and BAY 11-7085 were examined on colon cancer cell growth using the soft agar colony formation assay.

[4] = test system: HCT-116 cells; assay: Soft agar colony formation assay; format: cell-based, human; conditions: 10 μM for 6 days
Experimental: as §2, §3

[5] = test system: HT-29 cells; assay: Soft agar colony formation assay; format: cell-based, human; conditions: 10 μM for 6 days
Experimental: as §2, §3

[6] = test system: HT-29 xenografts; assay: Subcutaneous colon cancer xenograft in athymic mice; format: in vivo, mouse; conditions: athymic mice; compound alone; cell line not given
Experimental: as §2
HT-29 and HCT-116 cells were harvested in 0.25% trypsin-PBS-EDTA, washed once in media and PBS, and resuspended in PBS at 1 million cells per 200 μL. One million cells were injected either subcutaneously in the backs or intraperitoneally in 5 week old female nu/nu athymic mice (Charles River Labs). For the mice with subcutaneous tumors, the tumors were allowed to establish themselves for 10 days after which they were randomized to BAY 11-7085 or DMSO. For the mice with intraperitoneal tumors, the mice received DMSO or BAY 11-7085 (5 mg/kg) 24 hours before the cancer cells were injected intraperitoneally. […] Subcutaneous tumor sizes were determined by measuring the length and width with calipers. These studies were approved by the University of Utah Institutional Review Board and Institutional Animal Care and Use Committee and performed in the Animal Resource Center. Mice were euthanized when they experienced a greater than 10% loss in body weight or if they appeared ill. Post-mortem examinations included sectioning of kidney, lung, and liver tissues which were stained with hematoxylin and eosin followed by examination for tissue toxicity/damage by an experienced mouse pathologist (E.J.E.) who was blinded to therapy.
HCT-116 and HT-29 cell lines were used to generate subcutaneous tumors in athymic female mice. The mice were subsequently randomized to be treated with vehicle (DMSO) alone or BAY 11-7085 […] twice weekly for 28 days.

[7] = test system: adherent HT-29 cells; assay: Annexin V-FITC apoptosis assay, adherent cells; format: cell-based, human
Source text: FIG. 3 is a group of graphs that show NF-κB inhibitors cause apoptosis of colon cancer cells. […] The data points represent the average percent of annexin V-positive, propidium iodide-negative cells (of the total cells counted) from triplicate experiments. The error bars represent the standard error of the means. […] The results shown are a graphic representation of individual flow cytometry results expressed as the percentage of cells that were annexin V-positive of those that excluded propidium iodide. […] An immunoblot of the lysates for cleaved PARP was performed. Each lane represents equal total protein concentrations. […] The cells were allowed to adhere to plastic dishes for 1 hour after which they were washed gently in PBS and stained with crystal violet. The crystal violet stained cells were solubilized in deoxycholate and the absorbance detected in a spectrophotometer at 590 nm. The adherent cells were expressed as a fraction of the controls. Each data point represents the average of triplicate experiments and the error bars the standard errors of the means.
as §1
(§4) Single cell suspensions were plated at 100,000 cells per well in 24-well plates in media containing DMSO, BAY 11-7082, BAY 11-7085, or MG-132 for 8-24 hours in an incubator. Alternatively, DMSO, BAY 11-7082, BAY 11-7085, or MG-132 were added to cells that were confluent and adherent for several days. The nonadherent cells were aspirated off with the media and spun for 3 minutes at 2,000 rpm in 15 mL polypropylene tubes. The adherent cells were washed twice with PBS, dispersed in trypsin, and spun down for 3 minutes at 2,000 rpm in 15 mL polypropylene tubes. The nonadherent and adherent cells were resuspended in 1× binding buffer (10 mM HEPES/NaOH, pH 7.4, 140 mM NaCl, and 2.5 mM CaCl2) to a final concentration of 10^6 cells/mL. 100 μL of the cell solution were transferred to a 5 mL culture tube and incubated with 5 μL of annexin V-FITC-conjugated monoclonal antibody (Pharmingen) and 10 μl, of propidium iodide (from a 50 μg/mL stock solution made in PBS) in the dark at 25° C. for 15 minutes. 400 μL of binding buffer was added to each tube and the cells were analyzed by flow cytometry immediately. The percent of apoptosis was determined as the percent of annexin V-positive, propidium iodide-negative cells of the total cells counted.

[8] = test system: IκB phosphorylation and TNFα-induced NF-κB activation; conditions: Pierce et al., J Biol Chem 272:21096-103, 1997; cited from earlier work
[9] = test system: JNK/SAPK and p38; conditions: Pierce et al., J Biol Chem 272:21096-103, 1997; cited from earlier work
[10] = test system: transiently suspended HT-29 cells; assay: Apoptosis of transiently suspended cells during readhesion (annexin V assay); format: cell-based, human; conditions: for apoptosis of readhering HT-29 colon cancer cells: NF-κB inhibitors other than BAY 11-7085
Experimental: HT-29 cells that were either transiently suspended with trypsin-EDTA or adherent for three days, were treated at time zero with DMSO or 10-100 μM BAY 11-7085. The percent of apoptotic cells was determined using the annexin V flow cytometry assay and graphed versus the dose of BAY 11-7085. FIG. 4B are photographs showing DLD-1, FIG. 4C are photographs showing HCT-116, and FIG. 4D are photographs showing HT-29 cells that were transiently suspended in trypsin-EDTA and allowed to readhere to glass coverslips for 1-24 hours. The cells were fixed and immunostained with an NF-κB p65 subunit monoclonal antibody.
The transiently suspended cells were lysed and allowed to bind to DNA oligonucleotides, containing the NF-κB consensus binding site, that were immobilized to 96-well plates. NF-κB protein bound to the oligonucleotides was detected by an antibody to the p65 subunit that only recognized p65 that is bound to DNA. The positive control was HeLa cells that were stimulated with TNFα. A control was performed using excess free NF-κB oligonucleotides (Competitor). […] NF-κB binding activity was determined by the TransAM assay as in FIG. 5A. […] The data shown represent typical results of three separate experiments. […] An immunoblot for COX-2 was performed.
The percentage of apoptotic cells was determined using the annexin V assay. The data points represent the averages of three experiments; bars, +−.SE. E. DLD-1 and F. HT-29 cells were transduced with an adenovirus containing the IκB super-repressor construct. After 3 days, the cells were transiently suspended and allowed to readhere in the presence of subapoptotic concentrations of BAY 11-7085 or DMSO (vehicle) for 8 hours. The data are expressed as fractions of cells surviving compared with the controls (no adenovirus) and were quantitatively determined by staining the remaining adherent cells with crystal violet.
as §4
Various concentrations of BAY 11-7085 were added to HT-29 cells that were transiently suspended in trypsin-PBS for approximately 15 minutes before replating. The transiently suspended cells were quickly allowed to readhere in order to prevent anoikis. Alternatively, BAY 11-7085 was added to adherent HT-29 cell monolayers.

[11] = test system: colon and pancreatic cancer cells; assay: Apoptosis of colon and pancreatic cancer cells during readhesion; format: cell-based, human; conditions: not shown

Cc1ccc(S(=O)(=O)/C=C/C#N)cc1 [BAY 11-7082, (2E)-3-(tolylsulfonyl)-2-propenenitrile]
cell proliferation ([1]; 10 μM, cultured up to 8 days): but not BAY 11-7082 greatly inhibited cell proliferation | inhibition of NF-κB activity (EMSA) [2]: more profound inhibition of NF-κB activity occurred with BAY 11-7085 than BAY 11-7082 | anchorage-independent proliferation [3]: significantly inhibited | anchorage-independent proliferation [4]: but not HCT-116 | anchorage-independent proliferation [5]: significantly inhibited | colon cancer xenograft growth [6]: inhibit colon cancer xenograft growth | level of apoptosis (annexin V-positive, propidium iodide-negative cells) ([7]; adherent HT-29, 24 hours, BAY compounds at doses up to 20, MG-132 20 μM): caused an increase in the level of apoptosis | IκB phosphorylation and TNFα-induced NF-κB activation [8]: inhibit IκB phosphorylation and TNFα-induced NF-κB activation | activation of JNK/SAPK and p38 [9]: activate JNK/SAPK and p38

CC(C)C[C@H](NC(=O)[C@H](Cc1ccccc1)NC(=O)c1cnccn1)B(O)O [bortezomib]
apoptosis of readhering HT-29 colon cancer cells [10]: failed to induce apoptosis | apoptosis of colon and pancreatic cancer cells during readhesion [11]: failed to induced apoptosis

infliximab
apoptosis of readhering HT-29 colon cancer cells [10]: failed to induce apoptosis | apoptosis of colon and pancreatic cancer cells during readhesion [11]: failed to induced apoptosis

S=C(S)N1CCCC1 [PDTC, pyrrolidine dithiocarbamate]
induction of apoptosis of HT-29 cells during readhesion ([10]; various concentrations, 4 hours, compared with BAY 11-7085): caused apoptosis of HT-29 cells during readhesion

cA2: antagonistic and chimeric TNFα monoclonal antibody, inhibits TNFα binding to TNFα receptors
colon cancer cell proliferation ([1]; cA2 at 10 and 50 μg/mL, after several days of treatment): caused a significant inhibition of colon cancer cell proliferation | effect of cA2 pretreatment on BAY 11-7085-induced apoptosis ([7]; HT-29, 50 μg/mL cA2 for 48 hours, then 20 μM BAY 11-7085 for 24 hours): did not diminish BAY 11-7085-induced apoptosis
